Consider nine compounds from publication PMC10687260, “1,3-Diphenylureido hydroxamate as a promising scaffold for generation of potent antimalarial histone deacetylase inhibitors” (Scientific Reports, 2023).

The subject of data set [1] is P. falciparum 3D7. To be noted: Fig. 1A; cited from earlier work.
In data set [2] the test system is P. falciparum 3D7. As to the kind of experiment: Antiplasmodial SYBR Green I proliferation assay, P. falciparum 3D7. The data set is classed as cell-based, Plasmodium falciparum. The conditions noted are these: read-out: IC50 Pf3D7. The text has this:
(§1) Antiplasmodial activity against P. falciparum 3D7 (A, C and E) and P. falciparum Dd2 (B, D, F). […] Curves were plotted using non-linear regression based on means from three independent experiments measured in triplicate. Error bars indicate standard deviation, whose values are provided in the respective table.
(§2) Plasmodium falciparum culture and antiplasmodial activity. […] Development, parasitaemia, and morphology of parasites were monitored by light microscopy of thin blood smears stained according to the Romanowsky method (Panótico Rápido staining kit; Laborclin, Pinhais, Paraná, Brazil). […] Fresh 0^+ blood was generously provided by “Hospital Novo Atibaia” (Atibaia, SP, Brazil), and approved by the ethics committee at ICB-USP. The antiplasmodial effect of all compounds was validated against P. falciparum 3D7 strain conducting SYBR Green I (Invitrogen) drug assays as previously reported[30],[46] as a modification of the original procedure. […] Parasite proliferation was measured by the DNA load via fluorescence, using 100 μL of a lysis buffer with SYBR Green I (0.02% v/v) and incubated for 1 h at room temperature in the dark. […] Focal and gain adjustment was performed using the non-treated controls (highest expected fluorescence signal). Data was acquired via the CLARIOstar (V5.20) and MARS software, manually scaled to 0–100%, and plotted using GraphPad Prism (v9.5.2 for Windows, GraphPad Software, La Jolla California USA, www.graphpad.com). Non-treated parasites, the highest solvent concentration on parasites, CQ on parasites, and the highest drug concentration in the medium were used as controls for maximal growth, solvent control, positive biological control, and native drug fluorescence, respectively.

In another data set the test system is HepG2 cells. As to the kind of experiment: Cytotoxicity in human HepG2 cells (WST-1). It counts as cell-based. The conditions noted are these: read-out: IC50 HepG2. The protocol: Cytotoxicity in human HepG2 cells.[47] […] Cytotoxic effects of compounds were assessed using the cell proliferation reagent WST-1 (Roche; CELLPRO-RO) in a 96-well plate-based screening assay. HepG2 cells were seeded at 10^4 cells/well (100 μL) in 96-well flat-bottom plates (Sarstedt) the night before the experiment to allow attachment of cells. The next day, two-fold serial dilutions of compounds were prepared in fresh medium in an extra plate, and the medium of cells was replaced by the medium containing the compound dilutions. Non-treated cells (max. proliferation), cells treated with the maximal solvent concentration (DMSO; solvent control), and medium with the maximal compound concentration (native absorbance) used as controls. […] Subsequently, 10 μL WST-1 was added to each well and plates were incubated for additional 4 h under standard conditions. WST-1 is a tetrazolium salt and is metabolised by the mitochondrial succinate-tetrazolium-reductase system of living cells and forms formazan, whose absorbance was measured at 450 nm. Absorbance at 630 nm was assessed to check for protein and precipitation background. Both measurements were acquired via the CLARIOstar (V5.20) and MARS software, manually scaled to 0–100%, and plotted with GraphPad Prism (version 9.5.2 for Windows, GraphPad Software, La Jolla California USA).

The test system of the next data set is P. falciparum Dd2. The experiment in a line: Antiplasmodial SYBR Green I proliferation assay, P. falciparum Dd2. It counts as cell-based. The conditions noted are these: Plasmodium falciparum.
From the text: as §1, §2

A further data set has as its target T1, PfHDAC1 (Plasmodium falciparum, UniProt Q7K6A1).
T1 construct: purchased BPS Bioscience (San Diego, CA)
T1 sequence (Q7K6A1 1-449): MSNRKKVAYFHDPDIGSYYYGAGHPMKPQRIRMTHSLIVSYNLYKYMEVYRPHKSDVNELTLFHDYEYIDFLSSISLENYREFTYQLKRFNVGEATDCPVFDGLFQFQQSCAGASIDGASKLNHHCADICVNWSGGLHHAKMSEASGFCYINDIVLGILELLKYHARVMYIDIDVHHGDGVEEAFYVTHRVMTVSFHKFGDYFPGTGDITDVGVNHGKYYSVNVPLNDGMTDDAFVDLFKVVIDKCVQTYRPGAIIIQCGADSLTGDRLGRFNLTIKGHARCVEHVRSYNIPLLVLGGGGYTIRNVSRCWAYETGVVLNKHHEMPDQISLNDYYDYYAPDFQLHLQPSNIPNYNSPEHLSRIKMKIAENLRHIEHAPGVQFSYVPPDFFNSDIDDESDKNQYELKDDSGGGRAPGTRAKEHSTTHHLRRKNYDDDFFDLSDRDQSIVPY
As to the kind of experiment: In vitro PfHDAC1 enzymatic assay. It counts as biochemical. On the procedure: In vitro PfHDAC1 enzymatic assay. PfHDAC inhibition assays were performed by BPS Bioscience (San Diego, CA). […] Then, each DMSO solution was directly diluted 10 × fold into the HDAC assay buffer for an intermediate dilution of 10% DMSO in HDAC assay buffer. Then, 5 µL of the intermediate dilution was added to a 50 µL reaction so that the final concentration of DMSO is 1% in all the reactions. […] Fluorescence intensity was measured at an excitation of 360 nm and an emission of 460 nm using a Tecan Infinite M1000 microplate reader. […] The fluorescent intensity data were analyzed using GraphPad Prism (v9.5.2). In the absence of the compound, the fluorescent intensity (Ft) in each data set was defined as 100% activity. In the absence of HDAC, the fluorescent intensity (Fb) in each data set was defined as 0% activity. The percent activity in the presence of each compound was calculated according to the following equation: % activity = (F-Fb)/(Ft-Fb), where “F” is the fluorescent intensity in the presence of the compound.

The next data set relates to acetylated histone H3. The experiment in a line: Western blot of acetylated histone H3 in infected erythrocytes. It counts as cell-based, Plasmodium falciparum. To be noted: 10 × IC50 for 4 h, trophozoites, vs DMSO. The protocol:
(§3) Figure 5 Hydroxamic acid derivatives as potent in vitro PfHDAC1 inhibitors. […]. Enzyme activity was calculated by normalizing the data against the DMSO treated samples and discounting the background. Data are presented as shown above, with mean ± S.D. (n = 2). […]. Comparison of group/concentration against the DMSO control is represented as † for P < 0.0001. […]. Numbers on side of the bands represent the predicted mass (kDa) for each protein. (C,D) Band quantification of histone H3 (C) and H4 (D), respectively, normalizing their acetylated detection against their unmodified version. Differences to this value were analyzed by one way ANOVA using the Dunnett’s post correction, comparing each group against the DMSO control, as rank tests where P values are explicitly depicted.
(§4) Western Blot analysis. […]. Proteins were transferred to PVDF membranes, 5% non-fat dry milk in TBS with Tween 20 (0.1%) was used as blocking agent for 1 h at room temperature. After, incubated with the antibodies overnight at 4 °C (Acetyl Histone H3 Lys9 C5B11 Cell Signaling, Acetyl Histone H4 Lys16 E2B8W Cell Signaling, Histone H3 96C10 Cell Signaling and Histone H4 D2X4V Cell Signaling). For the analysis of protein acetylation levels, the membranes were stripped and re-probed with the corresponding anti-total protein. Mouse monoclonal anti-α-Tubulin (B512 Sigma-Aldrich) was used as loading control. Detection was performed by enhanced chemiluminescence using horseradish peroxidase-conjugated secondary antibodies (Vector Laboratories, Burlingame, CA, USA) and SuperSignal TM West Pico PLUS Chemiluminescent substrate kit (Thermo Scientific). Images were acquired using ChemiDoc TM Imaging System (BioRad Laboratories, CA, USA). Quantitative densitometry was carried out using ImageLab software (Bio-Rad Laboratories, CA, USA). The volume density of the chemiluminescent bands was calculated as an integrated optical density × mm^2 after background correction from each independent experiment (N = 3).

For another data set, the system named is acetylated histone H4. As to the kind of experiment: Western blot of acetylated histone H4 in infected erythrocytes. The data set is classed as cell-based, Plasmodium falciparum. To be noted: 10 × IC50 for 4 h, trophozoites, vs DMSO. The protocol: as §3, §4
Another data set addresses T2, CYP450 2D6 (Homo sapiens, UniProt P10635).
T2 construct: 10 μM compound was incubated with human liver microsomes and selective marker substrates; from tissue; host or cells: human liver microsomes
The experiment in a line: CYP450 inhibition in human liver microsomes, 2D6. The data set is classed as in vitro ADME. To be noted: 10 µM.

A further data set deals with T3, CYP1A2 (Homo sapiens, UniProt P05177).
T3 construct: 10 μM compound was incubated with human liver microsomes and selective marker substrates; from tissue; host or cells: human liver microsomes
T3 sequence (P05177 1-516): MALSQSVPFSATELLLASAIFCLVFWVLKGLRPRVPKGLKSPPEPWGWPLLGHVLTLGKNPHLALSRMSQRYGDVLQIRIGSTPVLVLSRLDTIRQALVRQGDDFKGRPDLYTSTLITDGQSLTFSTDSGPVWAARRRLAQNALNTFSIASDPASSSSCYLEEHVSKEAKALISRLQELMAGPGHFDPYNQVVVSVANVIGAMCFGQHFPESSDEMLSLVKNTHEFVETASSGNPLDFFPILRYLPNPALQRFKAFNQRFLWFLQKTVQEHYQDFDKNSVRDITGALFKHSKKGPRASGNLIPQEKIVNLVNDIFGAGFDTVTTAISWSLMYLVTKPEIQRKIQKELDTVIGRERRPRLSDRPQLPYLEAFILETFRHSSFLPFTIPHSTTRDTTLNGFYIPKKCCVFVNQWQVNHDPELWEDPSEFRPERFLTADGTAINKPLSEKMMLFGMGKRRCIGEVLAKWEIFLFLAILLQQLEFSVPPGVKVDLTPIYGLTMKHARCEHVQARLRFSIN
As to the kind of experiment: CYP450 inhibition in human liver microsomes, 1A2. The data set is classed as in vitro ADME.

The next data set deals with T4, CYP450 2C9 (Homo sapiens, UniProt P11712).
T4 construct: 10 μM compound was incubated with human liver microsomes and selective marker substrates; from tissue; host or cells: human liver microsomes
T4 sequence (P11712 whole entry): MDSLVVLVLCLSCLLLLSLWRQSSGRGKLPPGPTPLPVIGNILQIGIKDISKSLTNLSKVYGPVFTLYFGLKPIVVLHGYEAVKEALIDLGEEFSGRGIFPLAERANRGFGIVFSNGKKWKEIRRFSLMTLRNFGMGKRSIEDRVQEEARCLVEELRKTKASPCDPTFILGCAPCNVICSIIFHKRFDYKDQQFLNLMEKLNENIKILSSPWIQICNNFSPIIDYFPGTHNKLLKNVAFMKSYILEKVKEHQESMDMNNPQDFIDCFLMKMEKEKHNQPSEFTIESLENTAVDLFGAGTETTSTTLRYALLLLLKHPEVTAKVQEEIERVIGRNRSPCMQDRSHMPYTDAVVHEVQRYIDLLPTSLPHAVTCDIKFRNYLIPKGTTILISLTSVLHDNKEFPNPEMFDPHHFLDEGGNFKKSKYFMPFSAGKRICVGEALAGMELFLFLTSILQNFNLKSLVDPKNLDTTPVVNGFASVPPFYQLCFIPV
The experiment in a line: CYP450 inhibition in human liver microsomes, 2C9. It counts as in vitro ADME.

Where two headings read alike, the source gives them in different places.

T2 sequence (P10635 whole entry): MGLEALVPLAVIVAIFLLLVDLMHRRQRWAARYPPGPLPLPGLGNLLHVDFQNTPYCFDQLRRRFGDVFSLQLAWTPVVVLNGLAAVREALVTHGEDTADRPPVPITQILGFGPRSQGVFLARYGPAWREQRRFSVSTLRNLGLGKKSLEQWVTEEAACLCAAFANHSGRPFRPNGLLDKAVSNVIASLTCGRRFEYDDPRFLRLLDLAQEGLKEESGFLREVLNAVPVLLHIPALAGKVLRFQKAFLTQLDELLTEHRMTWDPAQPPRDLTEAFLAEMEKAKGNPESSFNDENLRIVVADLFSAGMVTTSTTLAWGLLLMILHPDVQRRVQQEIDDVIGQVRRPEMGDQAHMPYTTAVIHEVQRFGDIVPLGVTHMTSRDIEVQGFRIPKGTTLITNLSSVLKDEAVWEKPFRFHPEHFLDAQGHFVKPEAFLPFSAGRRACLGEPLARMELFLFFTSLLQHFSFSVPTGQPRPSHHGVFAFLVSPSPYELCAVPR

In the case of `O=C(/C=C/c1cccc(S(=O)(=O)Nc2ccccc2)c1)NO` [belinostat], the IC50 in the data set on P. falciparum 3D7 [1] was 60 nM.
With `CCN(CC)CCCC(C)Nc1ccnc2cc(Cl)ccc12` (stereo not shown) [Chloroquine, reference compound], the IC50 was 15 nM in the data set on P. falciparum 3D7 [2] (Plasmodium falciparum, 3D7, 96 h); > 100000 nM in the data set with HepG2 cells (Homo sapiens, HepG2, 48 h); 430 nM with P. falciparum Dd2 (DD2, read-out: IC50 P. falciparum Dd2).
Consider `Cc1[nH]c2ccccc2c1CCNCc1ccc(/C=C/C(=O)NO)cc1` [panobinostat], for which the IC50 with P. falciparum 3D7 [1] is 10 nM.
As to `O=C(CCCCCCC(=O)Nc1ccccc1)NO` [Vorinostat (SAHA, 1), Vorinostat, reference compound], the IC50 was 100 to 1000 nM against PfHDAC1 and 2870 nM in the data set with HepG2 cells (48 h, WST-1). In addition, the inhibition at 1 µM on PfHDAC1 (recombinant PfHDAC1) was determined as 83%. The “Acetylated-H3 level (normalised to unmodified H3)” value in the data set with acetylated histone H3 was “non-statistically significant increase”. The “Acetylated-H4 level (normalised to unmodified H4)” value in the data set with acetylated histone H4 is “non-statistically significant increase”.
For `C=C[C@H]1C[N@@]2CC[C@H]1C[C@@H]2[C@@H](O)c1ccnc2ccc(OC)cc12` [Quinidine, reference compound], the “CYP450% inhibition @ 10 µM 2D6” value at CYP450 2D6 worked out at 89%. For the same compound, the “CYP450% inhibition @ 10 µM 1A2” value at CYP1A2 (10 µM) is listed as “* (Inhibition < 10%)”. The “CYP450% inhibition @ 10 µM 2C9” value at CYP450 2C9 (10 µM) is “* (Inhibition < 10%)”.
Take `Nc1ccccc1NC(=O)c1ccc(CNC(=O)OCc2cccnc2)cc1` [entinostat]: the IC50 with P. falciparum 3D7 [1] was 7800 nM.
As to `CC(=O)N1CCN(c2ccc(OCC3COC(Cn4ccnc4)(c4ccc(Cl)cc4Cl)O3)cc2)CC1` (stereo not shown) [Ketoconazole, reference compound], the “CYP450% inhibition 1A2” value at CYP1A2 (Tested concentration: 1.0 µM) is “* (Inhibition < 10%)”. The “CYP450% inhibition 2C9” value on CYP450 2C9 (Tested concentration: 1.0 µM) is on record as “* (Inhibition < 10%)”.
As for `CCCCN(Cc1ccc(C(=O)NO)cc1)C(=O)Nc1ccccc1` [Nexturastat A (16), Nexturastat A, reference compound], at PfHDAC1 (recombinant PfHDAC1), the inhibition at 1 µM turned out to be 58%. The inhibition at 10 µM on PfHDAC1 (10 µM, recombinant PfHDAC1) stood at 92%. Further, the IC50 in the data set with P. falciparum 3D7 [2] (96 h, values in brackets 95% confidence intervals) is 230 nM; in the data set with P. falciparum 3D7 [2] (Plasmodium falciparum, 3D7, 96 h, 96 h, values in brackets 95% confidence intervals), 210 nM; in the data set with HepG2 cells (Homo sapiens, HepG2, 48 h, WST-1) it was 21500 nM; with P. falciparum Dd2 (DD2, multidrug/CQ-resistant strain, read-out: IC50 P. falciparum Dd2), 290 nM. Also, in the data set with acetylated histone H3, the “Acetylated-H3 level (normalised to unmodified H3)” value is recorded as “non-statistically significant increase”. Moreover, in the data set with acetylated histone H4, the “Acetylated-H4 level (normalised to unmodified H4)” value is “non-statistically significant increase”.
For the compound `Cn1cc(CNCC2CCN(c3ncc(C(=O)NO)cn3)CC2)c2ccccc21` [quisinostat], the IC50 with P. falciparum 3D7 [1] is 5 nM.
